Test results as given in the supplement of paper PMC10307832.

Legend:
Test in all cases: relative viability (nuclei count vs DMSO), 5 days (fraction); higher = more cells survive
[1] = compound: C1/C(=C\C2=CC=CS2)/C(=O)/C(=C/C3=CC=CS3)/C1 + CCNC(=O)c1noc(-c2cc(C(C)C)c(O)cc2O)c1-c1ccc(CN2CCOCC2)cc1 [Luminespib] (partner 0.01 µM)
In short: (§1)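 Medians of duplicate plates are given as relative viability. That measure is the nuclei count in treated wells divided by the count in vehicle wells. Counts were taken on 4× images of lung cancer cell lines in 1536-well plates, 5 days after pin-tool dosing the day after seeding with one drug alone or a fixed anchor-drug dose plus five library-drug doses (not always all listed) in √10 steps.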

[2] = compound: C1/C(=C\C2=CC=CS2)/C(=O)/C(=C/C3=CC=CS3)/C1 + Cc1nc(Nc2ncc(C(=O)Nc3c(C)cccc3Cl)s2)cc(N2CCN(CCO)CC2)n1 [Dasatinib] (partner 0.075 µM)
In short: as §1

[3] = compound: C1=CC(=CC=C1C2=CC(=C(S2)NC(=O)N)C(=O)N)F [TPCA-1] + COc1cccc2cc(-c3nc([C@H]4CC[C@H](C(=O)O)CC4)n4ncnc(N)c34)[nH]c12 [OSI-027] (partner 0.5 µM)
In short: as §1

[4] = compound: C[C@]12O[C@H](C[C@]1(O)CO)n1c3ccccc3c3c4c(c5c6ccccc6n2c5c31)CNC4=O [Lestaurtinib] + O=C(CCCCCCC(=O)Nc1ccccc1)NO [Vorinostat] (partner 1 µM)
In short: as §1

Row | Cell Line | relative viability ([1]; first compound 0.2 µM) | relative viability ([1]; first compound 0.6325 µM) | relative viability ([1]; first compound 2 µM) | relative viability ([1]; first compound 6.325 µM) | relative viability ([1]; first compound 20 µM) | relative viability ([2]; first compound 0.2 µM) | relative viability ([2]; first compound 0.6325 µM) | relative viability ([2]; first compound 2 µM) | relative viability ([2]; first compound 6.325 µM) | relative viability ([2]; first compound 20 µM) | relative viability ([3]; first compound 0.04 µM) | relative viability ([3]; first compound 0.1265 µM) | relative viability ([3]; first compound 0.4 µM) | relative viability ([3]; first compound 1.265 µM) | relative viability ([3]; first compound 4 µM) | relative viability ([4]; first compound 0.005 µM) | relative viability ([4]; first compound 0.01581 µM) | relative viability ([4]; first compound 0.05 µM) | relative viability ([4]; first compound 0.1581 µM) | relative viability ([4]; first compound 0.5 µM)
1 | NCI-H2170 | 0.98 | 0.582 | 0.788 | 0.632 | 0.719 | 0.47 | 0.632 | 0.639 | 0.622 | 0.511 | 0.789 | 0.641 | 0.716 | 0.584 | 0.396 | 0.745 | 0.69 | 0.536 | 0.521 | 0.199
2 | NCI-H2228 | 0.158 | 0.167 | 0.179 | 0.133 | 0.134 | 0.638 | 0.479 | 0.535 | 0.408 | 0.531 | 0.774 | 0.503 | 0.519 | 0.633 | 0.283 | 0.601 | 0.779 | 0.352 | 0.228 | 0.211
3 | NCI-H2342 | 0.761 | 0.654 | 0.767 | 0.615 | 0.8 | 0.314 | 0.347 | 0.352 | 0.306 | 0.326 | 0.566 | 0.537 | 0.536 | 0.555 | 0.514 | 0.776 | 0.767 | 0.752 | 0.915 | 0.743
4 | NCI-H2347 | 0.405 | 0.959 | 0.381 | – | 0.466 | 0.323 | 0.281 | 0.311 | – | 0.352 | 0.442 | 0.483 | 0.43 | 0.346 | 0.518 | 0.508 | 0.643 | 0.555 | 0.469 | 0.503
5 | NCI-H2405 | 0.818 | 0.773 | 0.743 | 0.673 | 0.675 | 0.223 | 0.212 | 0.224 | 0.211 | 0.221 | 0.673 | 0.6 | 0.65 | 0.36 | 0.629 | 1.03 | 1.29 | 0.88 | 0.938 | 0.253
6 | NCI-H3122 | 0.112 | 0.0975 | 0.0926 | 0.0901 | 0.086 | 0.843 | 0.836 | 1.05 | 0.827 | 0.82 | 1.29 | 0.837 | 0.954 | 0.854 | 0.517 | 1.16 | 1.11 | 0.858 | 1.14 | 0.442
7 | PC-3 [JPC-3] | 0.807 | 0.645 | 0.689 | 0.556 | 0.659 | 1.03 | 0.981 | 1.04 | 0.856 | 0.948 | 0.83 | 0.702 | 0.73 | 0.654 | 0.615 | 0.644 | 1.15 | 0.866 | 0.816 | 0.469
8 | PC-14 | 0.139 | 0.145 | 0.179 | 0.187 | 0.15 | 0.32 | 0.264 | 0.285 | 0.241 | 0.222 | 0.954 | 0.717 | 0.951 | 0.593 | 0.341 | 0.718 | 0.558 | 0.509 | 0.324 | 0.0543
9 | RERF-LC-KJ | 1.26 | 1.36 | 1.25 | 1.15 | 1.14 | 0.858 | 0.798 | 0.776 | 0.682 | 0.656 | 0.674 | 0.489 | 0.565 | 0.532 | 0.485 | 0.56 | 0.683 | 0.538 | 0.588 | 0.375
10 | SK-LU-1 | 0.204 | 0.191 | 0.202 | 0.181 | 0.214 | 0.182 | 0.203 | 0.189 | 0.164 | 0.224 | 0.4 | 0.317 | 0.312 | 0.248 | 0.234 | 0.668 | 0.667 | 0.491 | 0.415 | 0.277
11 | SK-MES-1 | 0.868 | 0.646 | 0.839 | 0.545 | 0.773 | 0.337 | 0.421 | 0.366 | 0.391 | 0.425 | 0.589 | 0.567 | 0.558 | 0.319 | 0.211 | 1.18 | 1.05 | 0.487 | 0.411 | 0.215
12 | SW 900 | 0.16 | 0.173 | 0.181 | 0.175 | 0.156 | 0.64 | 0.773 | 0.769 | 0.574 | 0.671 | 0.705 | 0.576 | 0.768 | 0.463 | 0.475 | 0.376 | 0.69 | 0.59 | 0.632 | 0.65
13 | SW 1573 | 0.25 | 0.192 | 0.194 | 0.161 | 0.181 | 0.564 | 0.516 | 0.475 | 0.429 | 0.449 | 0.898 | 0.402 | 0.641 | 0.666 | 0.438 | 0.767 | 0.864 | 0.488 | 0.424 | 0.198
